Source: doi:10.1101/2021.05.17.444520v1 (biorxiv, 2021)

Target: T1, α2wt (Homo sapiens, UniProt P23416)
T1 sequence (P23416 28-452): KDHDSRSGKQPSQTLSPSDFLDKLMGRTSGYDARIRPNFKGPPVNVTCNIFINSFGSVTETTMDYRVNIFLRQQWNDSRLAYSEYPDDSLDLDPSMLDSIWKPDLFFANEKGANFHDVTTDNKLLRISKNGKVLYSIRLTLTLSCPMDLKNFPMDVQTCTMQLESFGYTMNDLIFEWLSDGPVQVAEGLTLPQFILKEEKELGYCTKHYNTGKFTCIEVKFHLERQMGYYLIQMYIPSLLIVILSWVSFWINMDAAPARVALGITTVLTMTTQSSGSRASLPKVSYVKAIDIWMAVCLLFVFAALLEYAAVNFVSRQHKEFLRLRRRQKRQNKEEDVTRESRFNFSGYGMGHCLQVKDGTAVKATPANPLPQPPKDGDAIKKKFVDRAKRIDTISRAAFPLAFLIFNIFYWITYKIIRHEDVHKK
Experiment: whole-cell patch clamp
Assay type: cell-based
Details: agonist; pH 7.4; -80 mV

Question: `NCC(=O)O` [glycine] was tested. Which EC50 did it give?
Answer: Its EC50 is “Dose response of glycine from (A)”.
